This is an account of results in patent publication US20240254119A1 (THIRD HARMONIC BIO, INC., priority 2022, published 2024).

The target of the assay is T1, wtKIT (Homo sapiens, UniProt P10721).
T1 construct: 1888289AM in the reaction mixtures
The assay is described as follows: HTRF biochemical assay, wtKIT (phosphorylation of a peptide substrate). The settings on record: Table 4. Here is the method:
Exemplary compounds were tested for ability to inhibit the phosphorylation of a peptide substrate by the tyrosine kinase wt KIT, PDGFRα, or CSF-1R. Assay procedures and results are described below.
Enzyme, substrate, and cofactors (ATP and Mn^2+) are combined in a well of a microtiter plate and incubated for 3 hours at 25° C. At the end of the incubation, the reaction is quenched by the addition of an EDTA-containing buffer.
The substrate used in the CSF-1R and PDGFRα assay is FAM-[…]-CONH2 (FAM is carboxyfluorescein). Peptide should be >95% purity. The substrate for the KIT assay is FAM-[…]-NH2.
• 1. To a well of a 384-wellplate add 5 μL of 2× enzyme buffer (or control). • 2. Add 100 nL of 100× compound. Enzyme and compound may be pre-incubated at this time if desired. • 3. Add 5 μL of 2× substrate buffer. • 4. Incubate plate at 25° C. for 3 hours. • 5. Add 10 uL of anti-phosphotyrosine antibody buffer. • 6. Read plate in BioTek Synergy Reader. Reaction Conditions for wtKIT Assay
• 100 mM HEPES, pH 7.5 0.1% BSA • 0.01% Triton x-100 • 1 mM DTT • 10 mM MnCl2 • 10 μM Sodium Orthovanadate • 10 μM Beta-Glycerophosphate • 400 μM ATP • 1% DMSO (from compound) • 1 μM FAM-[…]-CONH2, 5.0 nM wtKIT Enzyme (1888289AM)* • *Specific activity may vary from lot to lot. Enzyme concentration may need to be adjusted to yield 10-20% conversion of substrate to product.
On the technique in general: TR-FRET usually uses a lanthanide donor and a delayed reading to cut background.

pIC50: −log10 of the molar value.

T1 sequence (P10721 26-976): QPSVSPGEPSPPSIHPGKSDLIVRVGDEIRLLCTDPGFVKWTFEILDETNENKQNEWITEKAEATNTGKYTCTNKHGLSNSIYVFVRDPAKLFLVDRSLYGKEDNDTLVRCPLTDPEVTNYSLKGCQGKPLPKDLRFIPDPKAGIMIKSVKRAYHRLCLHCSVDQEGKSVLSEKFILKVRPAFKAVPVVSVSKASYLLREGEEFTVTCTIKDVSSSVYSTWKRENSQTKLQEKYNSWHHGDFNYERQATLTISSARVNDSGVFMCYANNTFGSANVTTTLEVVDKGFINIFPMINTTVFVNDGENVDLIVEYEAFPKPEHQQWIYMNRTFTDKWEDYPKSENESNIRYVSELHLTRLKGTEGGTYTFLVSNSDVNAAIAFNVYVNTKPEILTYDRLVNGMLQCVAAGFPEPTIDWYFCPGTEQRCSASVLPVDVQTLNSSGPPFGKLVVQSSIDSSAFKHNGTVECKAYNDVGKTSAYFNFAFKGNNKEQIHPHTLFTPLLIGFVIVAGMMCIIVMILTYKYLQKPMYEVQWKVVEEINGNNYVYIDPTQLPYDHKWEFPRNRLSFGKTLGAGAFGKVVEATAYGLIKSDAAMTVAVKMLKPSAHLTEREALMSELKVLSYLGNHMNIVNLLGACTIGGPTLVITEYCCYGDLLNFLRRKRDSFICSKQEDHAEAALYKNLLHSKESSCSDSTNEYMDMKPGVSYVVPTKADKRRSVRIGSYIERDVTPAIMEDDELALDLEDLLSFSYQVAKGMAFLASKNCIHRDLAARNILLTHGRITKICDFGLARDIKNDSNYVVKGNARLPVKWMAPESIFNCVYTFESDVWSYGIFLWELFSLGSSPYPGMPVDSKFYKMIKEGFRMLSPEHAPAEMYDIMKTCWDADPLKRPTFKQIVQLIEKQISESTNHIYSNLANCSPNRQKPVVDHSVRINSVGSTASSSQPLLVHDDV

Broadly, the pIC50 is the IC50 on a negative log10 scale, so that one unit is a factor of ten. Regarding `Cc1ccc(-c2noc(CC(O)C(C)C)n2)cc1NC(=O)c1cnc2ccccn12` (stereo not drawn) [Compound I-525, N-(5-(5-(2-hydroxy-3-methylbutyl)-1,2,4-oxadiazol-3-yl)-2-methylphenyl)imidazo[1,2-a]pyridine-3-carboxamide], the pIC50 is at least 7.30. With `Cc1ccc(-c2ncon2)cc1NC(=O)c1cnc2cc(COCC(C)(C)O)ccn12` [Compound I-641, 7-((2-hydroxy-2-methylpropoxy)methyl)-N-(2-methyl-5-(1,2,4-oxadiazol-3-yl)phenyl)imidazo[1,2-a]pyridine-3-carboxamide], the pIC50 was 5.30 to 6.30. Consider `COc1ccn2c(C(=O)Nc3cc(-c4noc(C)n4)ccc3C)cnc2c1` [Compound I-533, 7-methoxy-N-(2-methyl-5-(5-methyl-1,2,4-oxadiazol-3-yl)phenyl)imidazo[1,2-a]pyridine-3-carboxamide], for which the pIC50 is at least 7.30. To `Cc1ccc(-c2noc([C@H]3C[C@@H]3F)n2)cc1NC(=O)c1cnc2ccc(COCC(C)(C)O)cn12` [Compound I-455, N-[5-[5-[(1R,2S)-2-fluorocyclopropyl]-1,2,4-oxadiazol-3-yl]-2-methyl-phenyl]-6-[(2-hydroxy-2-methyl-propoxy)methyl]imidazo[1,2-a]pyridine-3-carboxamide] belongs at least 7.30. To `COc1ccn2c(C(=O)Nc3cc(-c4noc(Cc5ccccc5)n4)ccc3C)cnc2c1` [Compound I-552, N-(5-(5-benzyl-1,2,4-oxadiazol-3-yl)-2-methylphenyl)-7-methoxyimidazo[1,2-a]pyridine-3-carboxamide] belongs at least 7.30.

Regarding `CCc1nc(-c2ccc(C)c(NC(=O)c3cnc4cc(-c5csc(CO)n5)ccn34)c2)no1` [Compound I-672], the negative-log IC50 (pIC50) was at least 7.30.

Regarding `Cc1ccc(-c2noc([C@H]3C[C@@H]3F)n2)cc1NC(=O)c1cnc2cc(CCOCCO)ccn12` [Compound I-475, N-[5-[5-[(1R,2S)-2-fluorocyclopropyl]-1,2,4-oxadiazol-3-yl]-2-methyl-phenyl]-7-[2-(2-hydroxyethoxy)ethyl]imidazo[1,2-a]pyridine-3-carboxamide], the negative-log IC50 (pIC50) is at least 7.30. Then `Cc1ccc(-c2noc(C[C@H](O)C(F)F)n2)cc1NC(=O)c1cnc2cc(COCc3nc[nH]n3)ccn12` [Compound I-587, N-[5-[5-[(2S)-3,3-difluoro-2-hydroxy-propyl]-1,2,4-oxadiazol-3-yl]-2-methyl-phenyl]-7-(1H-1,2,4-triazol-3-ylmethoxymethyl)imidazo[1,2-a]pyridine-3-carboxamide], with at least 7.30; and `Cc1nc(-c2ccc(C)c(NC(=O)c3cnn4cc(-c5cscn5)ccc34)c2)no1` [Compound I-559, N-(2-methyl-5-(5-methyl-1,2,4-oxadiazol-3-yl)phenyl)-6-(thiazol-4-yl)pyrazolo[1,5-a]pyridine-3-carboxamide], with at least 7.30. On to `Cc1ccc(-c2noc([C@H]3C[C@@H]3F)n2)cc1NC(=O)c1cnn2ccc(F)cc12` [Compound I-496, 5-fluoro-N-[5-[5-[(1R,2S)-2-fluorocyclopropyl]-1,2,4-oxadiazol-3-yl]-2-methylphenyl]pyrazolo[1,5-a]pyridine-3-carboxamide], for which the pIC50 is at least 7.30.

As to `Cc1ccc(-c2noc([C@H]3C[C@@H]3F)n2)cc1NC(=O)c1cnc2cc(COC[C@H](O)C(F)F)ccn12` [Compound I-501, 7-(((S)-3,3-difluoro-2-hydroxypropoxy)methyl)-N-(5-(5-((1R,2S)-2-fluorocyclopropyl)-1,2,4-oxadiazol-3-yl)-2-methylphenyl)imidazo[1,2-a]pyridine-3-carboxamide], the pIC50 was at least 7.30. Then `COCc1ccn2c(C(=O)Nc3cc(-c4noc(CCN5CCCCC5)n4)ccc3C)cnc2c1` [Compound I-666], with 6.30 to 7.30; and `Cc1ccc(-c2noc(C[C@H](O)C(F)F)n2)cc1NC(=O)c1cnc2cc(OCCO)ccn12` [Compound I-570, (S)—N-(5-(5-(3,3-difluoro-2-hydroxypropyl)-1,2,4-oxadiazol-3-yl)-2-methylphenyl)-7-(2-hydroxyethoxy)imidazo[1,2-a]pyridine-3-carboxamide], with at least 7.30; and `COc1ccn2c(C(=O)Nc3cc(-c4noc(CC5CCCO5)n4)ccc3C)cnc2c1` (stereo not drawn) [Compound I-582, 7-methoxy-N-(2-methyl-5-(5-((tetrahydrofuran-2-yl)methyl)-1,2,4-oxadiazol-3-yl)phenyl)imidazo[1,2-a]pyridine-3-carboxamide], with at least 7.30. Turning to `Cc1ccc(-c2noc([C@H]3C[C@@H]3F)n2)cc1NC(=O)c1cnc2cc(COCC3(O)CC3)ccn12` [Compound I-622, N-(5-(5-((1R,2S)-2-fluorocyclopropyl)-1,2,4-oxadiazol-3-yl)-2-methylphenyl)-7-(((1-hydroxycyclopropyl)methoxy)methyl)imidazo[1,2-a]pyridine-3-carboxamide], the pIC50 was at least 7.30.

Regarding `CNCC(O)Cc1nc(-c2ccc(C)c(NC(=O)c3cnc4ccccn34)c2)no1` (stereo not drawn) [Compound I-557], the negative logarithm of the IC50 (pIC50) was 4.52 to 5.30. Then `Cc1ccn2c(C(=O)Nc3cc(-c4noc(-c5cccnc5)n4)ccc3C)cnc2c1` [Compound I-726], with 6.30 to 7.30. In the case of `Cc1ccc(-c2noc(C[C@H](O)C(F)F)n2)cc1NC(=O)c1cnc2cc(OCC(C)O)ccn12` (stereo partly drawn) [Compound I-571, N-(5-(5-((S)-3,3-difluoro-2-hydroxypropyl)-1,2,4-oxadiazol-3-yl)-2-methylphenyl)-7-(2-hydroxypropoxy)imidazo[1,2-a]pyridine-3-carboxamide], the pIC50 was at least 7.30. To `COc1cc2ncc(C(=O)Nc3cc(-c4noc(N5CC(F)(F)C5)n4)ccc3C)n2cc1F` [Compound I-611] belongs at least 7.30; to `Cc1ccc(-c2ncon2)cc1NC(=O)c1cnc2cc(N3CCOCC3)ccn12` [Compound I-717], at least 7.30. As to `Cc1ccc(-c2noc([C@H]3C[C@@H]3F)n2)cc1NC(=O)c1cnc2cc(COC[C@@H](O)C(F)F)ccn12` [Compound I-500, 7-(((R)-3,3-difluoro-2-hydroxypropoxy)methyl)-N-(5-(5-((1R,2S)-2-fluorocyclopropyl)-1,2,4-oxadiazol-3-yl)-2-methylphenyl)imidazo[1,2-a]pyridine-3-carboxamide], the pIC50 was at least 7.30. For the molecule `CCc1nc(-c2ccc(C)c(NC(=O)c3cnc4cc(-c5cscn5)ccn34)c2)no1` [Compound I-720], the pIC50 was at least 7.30. Then `Cc1ccc(-c2ncon2)cc1NC(=O)c1cnc2cc(F)ccn12` [Compound I-744], with 5.30 to 6.30; and `CCc1nc(-c2ccc(C)c(NC(=O)c3cnc4cc(F)ccn34)c2)no1` [Compound I-739], with at least 7.30; and `COCc1ccn2c(C(=O)Nc3cc(-c4noc(-c5cccnc5)n4)ccc3C)cnc2c1` [Compound I-732], with 6.30 to 7.30. Then `Cc1ccc(-c2noc([C@H](O)CO)n2)cc1NC(=O)c1cnc2cc(Cl)ccn12` [Compound I-604], with 5.30 to 6.30; and `Cc1ccn2c(C(=O)Nc3cc(-c4noc(CCC(C)(O)C(F)(F)F)n4)ccc3C)cnc2c1` (single isomer, unassigned) [Compound I-516], with at least 7.30; and `Cc1ccc(-c2noc([C@@H]3CC4(CC4)CN3)n2)cc1NC(=O)c1cnc2cc(Cl)ccn12` [Compound I-627, (S)—N-(5-(5-(5-azaspiro[2.4]heptan-6-yl)-1,2,4-oxadiazol-3-yl)-2-methylphenyl)-7-chloroimidazo[1,2-a]pyridine-3-carboxamide], with at least 7.30. To `COc1ccn2c(C(=O)Nc3cc(-c4noc(CC5CCCCO5)n4)ccc3C)cnc2c1` (stereo not drawn) [Compound I-592, 7-methoxy-N-(2-methyl-5-(5-((tetrahydro-2H-pyran-2-yl)methyl)-1,2,4-oxadiazol-3-yl)phenyl)imidazo[1,2-a]pyridine-3-carboxamide] belongs at least 7.30; to `Cc1ccc(-c2noc(C[C@H](O)C(F)F)n2)cc1NC(=O)c1cnc2cc(-c3ccn(C)n3)ccn12` [Compound I-555, (S)—N-(5-(5-(3,3-difluoro-2-hydroxypropyl)-1,2,4-oxadiazol-3-yl)-2-methylphenyl)-7-(1-methyl-1H-pyrazol-3-yl)imidazo[1,2-a]pyridine-3-carboxamide], at least 7.30. `Cc1ccn2c(C(=O)Nc3cc(-c4noc(C5CCC(F)(F)CC5)n4)ccc3C)cnc2c1` [Compound I-540, 4 N-(5-(5-(4,4-difluorocyclohexyl)-1,2,4-oxadiazol-3-yl)-2-methylphenyl)-7-methylimidazo[1,2-a]pyridine-3-carboxamide]: the pIC50 is at least 7.30. Then `Cc1nc(-c2ccc(C)c(NC(=O)c3cnc4cc(-c5csc(CO)n5)ccn34)c2)no1` [Compound I-594, 7-(2-(hydroxymethyl)thiazol-4-yl)-N-(2-methyl-5-(5-methyl-1,2,4-oxadiazol-3-yl)phenyl)imidazo[1,2-a]pyridine-3-carboxamide], with at least 7.30.

Regarding `Cc1ccc(-c2noc(-c3ccccc3)n2)cc1NC(=O)c1cnc2cc(COCCO)ccn12` [Compound I-719], the pIC50 was at least 7.30.
